Data from US12085575B2, “Compositions and methods for detecting proteinopathies” (BOARD OF SUPERVISORS OF LOUISIANA STATE UNIVERSITY AND …, priority 2011, dated 2024).
Residues, ends and D or L forms follow the SMILES beside them. *: point of attachment. Cbz = O=C(OCc1ccccc1)*

Tested on: Mfn2
Experiment: Mfn2 modification and degradation in A-T/LV shRNA cells treated with mitochondrial depolarizing agents
Assay type: cell-based, human
Details: ISG15-silenced A-T cells; CCCP 25 uM with MG132 or Bafl 100 nM, 24 hr
Experimental: Immunoblotting Analysis of Mitochondrial Proteins—Mitochondria were isolated from A-T/LV control and ISG15 shRNA cells using the Miochondrial Isolation Kit (Thermo Scientific Company, 89874). The Dounce homogenization protocol described by the manufacturer was used to isolate mitochondria from cells. Mitochondrial pellets were resuspended in lysis buffer containing 50 mM Tris pH 7.5 and 4% (v/v) SDS. Samples were homogenized and boiled for 10 min. Lysates containing equal protein were then mixed with 6× Laemmli SDS sample buffer (3× final concentration). Samples were boiled again and mitochondrial proteins were analyzed by SDS-PAGE. Immunoblotting analyses using either anti-ISG15 (raised against human ISG15) (20), anti-ubiquitin (gift from Dr. Arthur Haas, at LSUHSC—New Orleans), or anti-mitofusin 2 (Abcam, ab88569) antibodies were carried out using the ECL Western procedure (Pierce, 34076) and the BioRad VersaDoc Imaging System (BioRad). Immunoblotting Analysis of HA Polyubiquitylated Proteins in Cells: Cells were transfected with HA-ubiquitin using the PolyFect transfection reagent (Qiagen, 301105). Twenty four hours after transfection, mitochondria were isolated as described above. Mitochondrial lysis, SDS-PAGE, and immunoblotting analysis to detect HA-ubiquitin conjugated proteins using anti-HA antibodies were carried out as described above. Immunoblotting Analysis of Mfn2 in Cells: Cells were lysed in lysis buffer containing 50 mM Tris-HCl, pH 7.5, 2% SDS, and protease inhibitor cocktail. Lysates were sonicated, boiled, and cleared by centrifugation. Lysates containing equal protein were then mixed with 6× Laemmli SDS sample buffer (3× final concentration). Samples were boiled again and proteins were separated by 15% SDS-PAGE. Immunoblotting analysis was carried out using anti-Mfn2 antibodies (Abcam) as described above. Intensity of the Mfn2 bands was quantitated using BioRad Quantity One software. Statistical analysis—Statistical analysis was carried out using GraphPad software.
Many outer mitochondrial membrane (OMM) proteins are ubiquitylated and degraded via the 26S proteasome prior to mitophagy in cells treated with the mitochondrial depolarizing agents (28,29). To test whether ISG15 inhibits polyubiquitylation of OMM proteins, we assessed the fate of Mfn2, an OMM protein and proteasome substrate, in A-T/LV-control and A-T/LV-ISG15-silenced cells treated with two different mitochondrial depolarizing agents, valinomycin and carbonylcyanide m-chlorophenylhydrazone (CCCP). Consistent with the literature reports (29,35,36), we observed a ladder of high molecular weight anti-Mfn2 cross-reactive bands above the 86 kDa Mfn2 protein band that is reminiscent of polyubiquitylation, in both ISG15-silenced and ISG15 overexpressing A-T cells (FIGS. 34 A and B, left panels). The endogenous level of these high molecular weight Mfn2 cross-reactive bands was remarkably higher in ISG15-silenced as compared to the ISG15-overexpressing A-T cells in the absence of any drugs (FIGS. 34A and B, first panels, compare lanes 1 and 4). […] In contrast, the level of these Mfn2 cross-reactive high molecular weight bands decreased under the same drug treatment conditions in ISG15-silenced A-T cells (FIGS. 34A and B, first panels, lanes 4-6, and the accompanying bar graph in the second panel for quantitation). […] The bar graphs in FIGS. 34A and B, third panels, show mean values of the ratio between free Mfn2 (86 kDa band) and actin proteins (±SEM) in CCCP-treated A-T/LV-control and ISG15 shRNA cells measured from eight independent experiments, and valinomycin-treated A-T/LV-control and ISG15 shRNA cells measured from three independent experiments respectively.

## CO/C1=C\C(C)=C\[C@@H](C)[C@@H](O)[C@@H](C)C/C(C)=C/C=C/[C@H](OC)[C@@H]([C@@H](C)[C@@H](O)[C@H](C)[C@@]2(O)C[C@@H](O)[C@H](C)[C@@H](C(C)C)O2)OC1=O [Bafilomycin A1]
  free Mfn2 degradation in CCCP-treated cells: not

## CC(C)C[C@@H](C=O)NC(=O)[C@H](CC(C)C)NC(=O)[C@H](CC(C)C)NC(=O)OCc1ccccc1 [MG132] (Cbz-Leu-Leu-Leu-aldehyde)
  free Mfn2 degradation in CCCP-treated cells: restored
